# Results: ChEMBL document CHEMBL1201862, “PubChem BioAssay data set” (2004)
#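 Exposure lasted 48 hours, with cells grown in 96-well plates and compounds tested at five concentrations. GI50: concentration for 50% inhibition of growth.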 Active and inactive are the calls of the source. No stated cut-off is given here; in the data, active = GI50 up to about 1.1 µM and inactive = higher.
# Experiments:
# Assay in all cases: DTP human tumour cell line panel, 48 h
# [1] = tested on: 786-0
# [2] = tested on: A498
# [3] = tested on: A549
# [4] = tested on: ACHN
# [5] = tested on: BT-549
# [6] = tested on: CAKI-1
# [7] = tested on: CCRF-CEM
# [8] = tested on: COLO 205
# [9] = tested on: DU-145
# [10] = tested on: EKVX
# [11] = tested on: HCC 2998
# [12] = tested on: HCT-116
# [13] = tested on: HCT-15
# [14] = tested on: HL-60
# [15] = tested on: HOP-62
# [16] = tested on: HOP-92
# [17] = tested on: HT-29
# [18] = tested on: Hs-578T
# [19] = tested on: IGROV-1
# [20] = tested on: K562
# [21] = tested on: KM12
# [22] = tested on: LOX IMVI
# [23] = tested on: M14
# [24] = tested on: MCF7
# [25] = tested on: MDA-MB-231
# [26] = tested on: MDA-MB-435
# [27] = tested on: MDA-N
# [28] = tested on: MOLT-4
# [29] = tested on: Malme-3M
# [30] = tested on: NCI-H226
# [31] = tested on: NCI-H23
# [32] = tested on: NCI-H460
# [33] = tested on: NCI-H522
# [34] = tested on: NCI/ADR-RES
# [35] = tested on: OVCAR-3
# [36] = tested on: OVCAR-4
# [37] = tested on: OVCAR-5
# [38] = tested on: OVCAR-8
# [39] = tested on: PC-3
# [40] = tested on: RPMI-8226
# [41] = tested on: RXF 393
# [42] = tested on: SF-268
# [43] = tested on: SF-295
# [44] = tested on: SF-539
# [45] = tested on: SK-MEL-28
# [46] = tested on: SK-MEL-2
# [47] = tested on: SK-MEL-5
# [48] = tested on: SK-OV-3
# [49] = tested on: SN12C
# [50] = tested on: SNB-19
# [51] = tested on: SNB-75
# [52] = tested on: SR
# [53] = tested on: SW-620
# [54] = tested on: T47D
# [55] = tested on: TK-10
# [56] = tested on: U-251
# [57] = tested on: UACC-257
# [58] = tested on: UACC-62
# [59] = tested on: UO-31
smiles,measurement,setting,value
O=C(O)c1ccc(NCc2nc3cc4ccccc4cc3[nH]2)cc1,GI50,[1],> 100 µM (inactive)
same,GI50,[2],> 100 µM (inactive)
same,GI50,[3],> 100 µM (inactive)
same,GI50,[4],> 100 µM (inactive)
same,GI50,[5],> 100 µM (inactive)
same,GI50,[6],> 100 µM (inactive)
same,GI50,[7],> 100 µM (inactive)
same,GI50,[8],> 100 µM (inactive)
same,GI50,[9],> 100 µM (inactive)
same,GI50,[10],> 100 µM (inactive)
same,GI50,[11],87.9 µM (inactive)
same,GI50,[12],> 100 µM (inactive)
same,GI50,[13],26.7 µM
same,GI50,[14],> 20.5 µM (inactive)
same,GI50,[15],> 100 µM (inactive)
same,GI50,[16],> 100 µM (inactive)
same,GI50,[17],> 100 µM (inactive)
same,GI50,[18],> 100 µM (inactive)
same,GI50,[19],> 100 µM (inactive)
same,GI50,[20],> 100 µM (inactive)
same,GI50,[21],> 100 µM (inactive)
same,GI50,[22],> 100 µM (inactive)
same,GI50,[23],> 100 µM (inactive)
same,GI50,[24],2.81 µM (inactive)
same,GI50,[25],> 100 µM (inactive)
same,GI50,[26],> 100 µM (inactive)
same,GI50,[27],> 100 µM (inactive)
same,GI50,[28],> 100 µM (inactive)
same,GI50,[29],0.0462 µM (active)
same,GI50,[30],> 100 µM (inactive)
same,GI50,[31],> 100 µM (inactive)
same,GI50,[32],> 100 µM (inactive)
same,GI50,[33],> 100 µM (inactive)
same,GI50,[34],> 100 µM (inactive)
same,GI50,[35],> 100 µM (inactive)
same,GI50,[36],> 90.4 µM (inactive)
same,GI50,[37],> 100 µM (inactive)
same,GI50,[38],> 100 µM (inactive)
same,GI50,[39],> 100 µM (inactive)
same,GI50,[40],> 100 µM (inactive)
same,GI50,[41],> 100 µM (inactive)
same,GI50,[42],> 100 µM (inactive)
same,GI50,[43],> 100 µM (inactive)
same,GI50,[44],> 100 µM (inactive)
same,GI50,[45],5.21 µM (inactive)
same,GI50,[46],24.7 µM (inactive)
same,GI50,[47],> 21.4 µM (inactive)
same,GI50,[48],> 100 µM (inactive)
same,GI50,[49],> 88.5 µM (inactive)
same,GI50,[50],> 100 µM (inactive)
same,GI50,[51],98.6 µM (inactive)
same,GI50,[52],> 100 µM (inactive)
same,GI50,[53],> 100 µM (inactive)
same,GI50,[54],> 100 µM (inactive)
same,GI50,[55],> 100 µM (inactive)
same,GI50,[56],> 100 µM (inactive)
same,GI50,[57],2.63 µM (inactive)
same,GI50,[58],> 100 µM (inactive)
same,GI50,[59],> 100 µM (inactive)
C=C1C(=O)O[C@H]2C[C@@]3(C)[C@H](O)CCC(=C)[C@@H]3[C@@H](OC(C)=O)[C@H]12,GI50,[1],5.85 µM (inactive)
same,GI50,[2],17.8 µM (inactive)
same,GI50,[3],14.7 µM (inactive)
same,GI50,[4],3.53 µM (inactive)
same,GI50,[5],7.33 µM (inactive)
same,GI50,[6],1.48 µM (inactive)
same,GI50,[7],1 µM (active)
same,GI50,[8],0.953 µM (active)
same,GI50,[9],10.9 µM (inactive)
same,GI50,[10],15.5 µM (inactive)
same,GI50,[11],15.1 µM (inactive)
same,GI50,[12],3.66 µM (inactive)
same,GI50,[13],1.85 µM
same,GI50,[14],2.19 µM (inactive)
same,GI50,[15],16.4 µM (inactive)
same,GI50,[16],2.71 µM (inactive)
same,GI50,[17],5.92 µM (inactive)
same,GI50,[18],14.3 µM (inactive)
same,GI50,[19],14.1 µM (inactive)
same,GI50,[20],2.63 µM (inactive)
same,GI50,[21],16.4 µM (inactive)
same,GI50,[22],5.43 µM (inactive)
same,GI50,[23],5.9 µM (inactive)
same,GI50,[24],1.51 µM (inactive)
same,GI50,[25],16.1 µM (inactive)
same,GI50,[26],15.5 µM (inactive)
same,GI50,[27],4.31 µM (inactive)
same,GI50,[28],3.13 µM (inactive)
same,GI50,[29],1.45 µM (inactive)
same,GI50,[30],15.2 µM (inactive)
same,GI50,[31],10.7 µM (inactive)
same,GI50,[32],13.1 µM (inactive)
same,GI50,[33],1.73 µM (inactive)
same,GI50,[34],21.8 µM (inactive)
same,GI50,[35],12.3 µM (inactive)
same,GI50,[36],4.85 µM (inactive)
same,GI50,[37],3.27 µM (inactive)
same,GI50,[38],18.7 µM (inactive)
same,GI50,[39],16.5 µM (inactive)
same,GI50,[40],5 µM (inactive)
same,GI50,[41],3.56 µM (inactive)
same,GI50,[42],19.2 µM (inactive)
same,GI50,[43],18.9 µM (inactive)
same,GI50,[44],0.409 µM (active)
same,GI50,[45],20 µM (inactive)
same,GI50,[46],15.9 µM (inactive)
same,GI50,[47],12.1 µM (inactive)
same,GI50,[48],30.2 µM (inactive)
same,GI50,[49],7.83 µM (inactive)
same,GI50,[50],12.9 µM (inactive)
same,GI50,[51],13.1 µM (inactive)
same,GI50,[52],2.22 µM (inactive)
same,GI50,[53],4.85 µM (inactive)
same,GI50,[54],4.65 µM (inactive)
same,GI50,[55],6.15 µM (inactive)
same,GI50,[56],20.2 µM (inactive)
same,GI50,[57],15.4 µM (inactive)
same,GI50,[58],15.9 µM (inactive)
same,GI50,[59],13.5 µM (inactive)
O=[N+]([O-])c1ccc(C2=NOC(c3ccc(Cl)cc3)N2C23CC4CC(CC(C4)C2)C3)cc1 (stereo unspecified),GI50,[1],> 100 µM (inactive)
same,GI50,[2],> 100 µM (inactive)
same,GI50,[3],56.9 µM (inactive)
same,GI50,[4],9.71 µM (inactive)
same,GI50,[5],> 100 µM (inactive)
same,GI50,[6],16.6 µM (inactive)
same,GI50,[7],> 100 µM (inactive)
same,GI50,[8],> 100 µM (inactive)
same,GI50,[9],> 100 µM (inactive)
same,GI50,[10],> 100 µM (inactive)
same,GI50,[11],64.1 µM (inactive)
same,GI50,[12],28.1 µM (inactive)
same,GI50,[13],97.1 µM
same,GI50,[14],6.46 µM (inactive)
same,GI50,[15],> 100 µM (inactive)
same,GI50,[16],25.5 µM (inactive)
same,GI50,[17],> 100 µM (inactive)
same,GI50,[18],34.9 µM (inactive)
same,GI50,[19],> 100 µM (inactive)
same,GI50,[20],> 100 µM (inactive)
same,GI50,[21],> 100 µM (inactive)
same,GI50,[22],> 100 µM (inactive)
same,GI50,[23],> 100 µM (inactive)
same,GI50,[24],40.6 µM (inactive)
same,GI50,[25],> 100 µM (inactive)
same,GI50,[26],> 100 µM (inactive)
same,GI50,[27],> 100 µM (inactive)
same,GI50,[28],33.3 µM (inactive)
same,GI50,[29],> 100 µM (inactive)
same,GI50,[30],64.9 µM (inactive)
same,GI50,[31],> 100 µM (inactive)
same,GI50,[32],> 100 µM (inactive)
same,GI50,[33],> 100 µM (inactive)
same,GI50,[34],> 100 µM (inactive)
same,GI50,[35],> 100 µM (inactive)
same,GI50,[36],> 100 µM (inactive)
same,GI50,[38],> 100 µM (inactive)
same,GI50,[39],> 100 µM (inactive)
same,GI50,[40],15.5 µM (inactive)
same,GI50,[41],1.86 µM (inactive)
same,GI50,[42],> 100 µM (inactive)
same,GI50,[43],> 100 µM (inactive)
same,GI50,[44],> 100 µM (inactive)
same,GI50,[45],> 100 µM (inactive)
same,GI50,[46],20.2 µM (inactive)
same,GI50,[47],53 µM (inactive)
same,GI50,[48],> 100 µM (inactive)
same,GI50,[49],> 100 µM (inactive)
same,GI50,[50],> 100 µM (inactive)
same,GI50,[51],> 100 µM (inactive)
same,GI50,[52],67.9 µM (inactive)
same,GI50,[53],> 100 µM (inactive)
same,GI50,[54],35.2 µM (inactive)
same,GI50,[55],> 100 µM (inactive)
same,GI50,[56],> 100 µM (inactive)
same,GI50,[57],> 100 µM (inactive)
same,GI50,[58],> 100 µM (inactive)
same,GI50,[59],> 100 µM (inactive)
